Read-outs that look alike come from different tables or passages of the source.
Experiments:
CDK7/cyclinH/MAT1 = target: T1, CDK7/cyclinH/MAT1 (Homo sapiens, UniProt P50613); assay: Upstate kinase Profiler counter-screening; type: biochemical
T1 construct: purchased Upstate

A2780 cells [1] = conditions: two hours exposure, 24 hours after exposure
Experimental: Cells were then fixed, stained with an FITC-conjugated, anti-BrdU monoclonal antibody and propidium iodide. The cells thus prepared were analyzed using 2-color flow cytometry with doublet-discrimination.

[2] = 40 mg/kg once per day for five days; blood on days 1 and 7 following the last dose
Experimental: The formulation was administered to BALB/c mice at a dosage level of 40 mg/kg once per day for five days. Blood samples were obtained on days 1 and 7 following the last dose and analyzed on an Advia 120 hematology analyzer immediately after diluting 1:5 in PBS. A full differential blood count was performed, including red blood cell analysis (including reticulocyte, variant count, and hemoglobin analyses), white blood cell analysis (including differential lineage counts and peroxidase staining) and a thrombopoiesis analysis.

PKCε = target: T2, PKCε (Homo sapiens, UniProt Q02156); assay: Upstate kinase Profiler counter-screening; type: biochemical
T2 construct: purchased Upstate
T2 sequence (Q02156 1-737): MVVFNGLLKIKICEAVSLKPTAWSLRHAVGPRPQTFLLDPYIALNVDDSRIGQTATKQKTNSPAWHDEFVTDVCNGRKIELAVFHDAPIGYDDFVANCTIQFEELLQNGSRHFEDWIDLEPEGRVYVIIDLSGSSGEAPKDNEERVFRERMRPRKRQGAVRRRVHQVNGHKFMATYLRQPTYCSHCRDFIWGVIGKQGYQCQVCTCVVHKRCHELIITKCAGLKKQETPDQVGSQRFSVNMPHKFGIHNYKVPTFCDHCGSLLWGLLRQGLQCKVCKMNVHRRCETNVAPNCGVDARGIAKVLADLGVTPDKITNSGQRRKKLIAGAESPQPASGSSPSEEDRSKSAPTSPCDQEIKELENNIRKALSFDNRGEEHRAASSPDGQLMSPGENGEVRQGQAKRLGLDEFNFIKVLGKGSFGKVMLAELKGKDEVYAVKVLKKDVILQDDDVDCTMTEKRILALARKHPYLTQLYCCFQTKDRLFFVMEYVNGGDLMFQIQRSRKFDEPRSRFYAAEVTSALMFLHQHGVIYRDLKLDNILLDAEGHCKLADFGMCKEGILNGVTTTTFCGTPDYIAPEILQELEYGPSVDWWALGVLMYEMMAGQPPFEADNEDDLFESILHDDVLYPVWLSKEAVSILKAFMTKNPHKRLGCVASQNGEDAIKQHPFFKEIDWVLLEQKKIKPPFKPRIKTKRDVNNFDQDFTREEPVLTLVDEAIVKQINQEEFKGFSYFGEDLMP

Blk = Blk (Mus musculus, UniProt P16277)
MSK1 = target: T3, MSK1 (Homo sapiens, UniProt O75582); assay: Upstate kinase Profiler counter-screening; type: biochemical
T3 construct: purchased Upstate

CDK6/cyclinD3 = target: T4, CDK6/cyclinD3 (Homo sapiens, UniProt Q00534); assay: Upstate kinase Profiler counter-screening; type: biochemical; conditions: at 1 μM
T4 construct: purchased Upstate

[3] = tested on: tumor cell lines including the standard NCI panel; conditions: inhibition of CDK2/CDK1 in tumor cells
Lyn = target: T5, Lyn (Homo sapiens, UniProt P07948); assay: Upstate kinase Profiler counter-screening; type: biochemical
T5 construct: purchased Upstate

AMPK = assay: Upstate kinase Profiler counter-screening; type: biochemical
A2780 cells [4] = conditions: 2 hours exposure to 0.1 mM
Experimental: Following washout, lysates were prepared from the cells to assess the duration of the effects of exposure.

PKCβII = target: T6, PKCβII (Homo sapiens, UniProt P05771); assay: Upstate kinase Profiler counter-screening; type: biochemical
T6 construct: purchased Upstate

[5] = tested on: A2780 ovarian carcinoma xenografts; assay: A2780 xenograft ovarian cancer model; type: in vivo, nude mice
[6] = tested on: A2780 ovarian cancer cell cultures; conditions: 2 hours of exposure, 6 hour washout; no increase up to 5.0 micromolar
Experimental: After the 6 hour washout period, cell extracts were prepared and evaluated by fluorometric assay for activated caspases (RFLU).

T5 sequence (P07948 whole entry, species assumed): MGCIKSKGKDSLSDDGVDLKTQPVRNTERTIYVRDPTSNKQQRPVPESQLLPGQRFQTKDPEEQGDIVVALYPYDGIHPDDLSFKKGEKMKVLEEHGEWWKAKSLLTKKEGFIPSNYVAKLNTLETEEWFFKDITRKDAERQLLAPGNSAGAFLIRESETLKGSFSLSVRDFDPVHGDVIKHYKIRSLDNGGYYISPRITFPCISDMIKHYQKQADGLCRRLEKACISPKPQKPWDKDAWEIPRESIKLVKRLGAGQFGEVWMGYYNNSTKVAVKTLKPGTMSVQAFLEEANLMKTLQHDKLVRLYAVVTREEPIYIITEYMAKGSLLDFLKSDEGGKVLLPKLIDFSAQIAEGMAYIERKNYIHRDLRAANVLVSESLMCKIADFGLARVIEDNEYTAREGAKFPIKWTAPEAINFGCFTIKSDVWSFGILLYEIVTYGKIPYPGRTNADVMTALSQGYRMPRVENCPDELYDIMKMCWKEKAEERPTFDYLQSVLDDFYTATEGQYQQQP
Sequence of Blk (P16277 2-499 limits assumed): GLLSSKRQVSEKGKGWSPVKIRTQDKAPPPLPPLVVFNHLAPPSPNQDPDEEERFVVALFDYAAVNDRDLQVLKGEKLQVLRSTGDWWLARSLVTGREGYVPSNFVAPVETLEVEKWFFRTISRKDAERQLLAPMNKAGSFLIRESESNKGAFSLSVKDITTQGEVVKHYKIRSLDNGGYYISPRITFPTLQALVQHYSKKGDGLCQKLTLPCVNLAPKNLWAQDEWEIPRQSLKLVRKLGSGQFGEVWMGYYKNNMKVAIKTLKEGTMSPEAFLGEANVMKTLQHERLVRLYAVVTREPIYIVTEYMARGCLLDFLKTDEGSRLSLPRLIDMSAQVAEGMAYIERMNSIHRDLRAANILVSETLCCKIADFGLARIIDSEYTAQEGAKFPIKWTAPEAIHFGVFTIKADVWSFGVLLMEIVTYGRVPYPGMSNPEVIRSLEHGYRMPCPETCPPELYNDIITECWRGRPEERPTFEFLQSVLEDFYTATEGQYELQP
T3 sequence (O75582 whole entry, species assumed): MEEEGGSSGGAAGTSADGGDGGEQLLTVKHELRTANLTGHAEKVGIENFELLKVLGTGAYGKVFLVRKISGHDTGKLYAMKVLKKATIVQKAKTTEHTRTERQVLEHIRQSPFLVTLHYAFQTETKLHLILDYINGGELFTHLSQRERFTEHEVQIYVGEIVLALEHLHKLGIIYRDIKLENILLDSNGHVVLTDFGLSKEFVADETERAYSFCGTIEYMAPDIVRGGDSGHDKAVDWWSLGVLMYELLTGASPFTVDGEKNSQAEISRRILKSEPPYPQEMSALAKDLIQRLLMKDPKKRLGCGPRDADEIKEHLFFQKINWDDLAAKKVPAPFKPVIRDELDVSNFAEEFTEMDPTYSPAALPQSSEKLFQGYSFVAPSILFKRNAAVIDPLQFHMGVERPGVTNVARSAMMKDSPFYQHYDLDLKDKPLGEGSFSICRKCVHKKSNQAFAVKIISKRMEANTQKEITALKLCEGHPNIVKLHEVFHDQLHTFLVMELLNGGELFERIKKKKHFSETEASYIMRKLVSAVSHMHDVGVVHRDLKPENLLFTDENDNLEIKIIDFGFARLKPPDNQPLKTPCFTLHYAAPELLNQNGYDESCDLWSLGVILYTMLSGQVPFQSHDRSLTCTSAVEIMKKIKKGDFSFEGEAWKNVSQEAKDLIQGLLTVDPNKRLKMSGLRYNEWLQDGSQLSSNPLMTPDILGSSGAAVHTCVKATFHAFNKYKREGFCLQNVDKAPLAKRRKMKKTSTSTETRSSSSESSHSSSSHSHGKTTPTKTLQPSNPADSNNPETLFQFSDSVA
T1 sequence (P50613 whole entry, species assumed): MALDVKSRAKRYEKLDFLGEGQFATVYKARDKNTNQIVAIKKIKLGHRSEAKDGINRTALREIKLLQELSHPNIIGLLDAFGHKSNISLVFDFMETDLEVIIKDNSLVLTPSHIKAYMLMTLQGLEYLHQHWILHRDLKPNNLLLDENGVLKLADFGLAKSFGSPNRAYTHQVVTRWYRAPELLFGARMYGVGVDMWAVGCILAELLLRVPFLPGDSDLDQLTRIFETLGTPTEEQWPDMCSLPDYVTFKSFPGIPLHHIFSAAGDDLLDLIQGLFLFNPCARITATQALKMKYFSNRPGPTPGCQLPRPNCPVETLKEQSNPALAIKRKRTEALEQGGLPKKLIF
T1 sequence (P51946 whole entry partner, species assumed): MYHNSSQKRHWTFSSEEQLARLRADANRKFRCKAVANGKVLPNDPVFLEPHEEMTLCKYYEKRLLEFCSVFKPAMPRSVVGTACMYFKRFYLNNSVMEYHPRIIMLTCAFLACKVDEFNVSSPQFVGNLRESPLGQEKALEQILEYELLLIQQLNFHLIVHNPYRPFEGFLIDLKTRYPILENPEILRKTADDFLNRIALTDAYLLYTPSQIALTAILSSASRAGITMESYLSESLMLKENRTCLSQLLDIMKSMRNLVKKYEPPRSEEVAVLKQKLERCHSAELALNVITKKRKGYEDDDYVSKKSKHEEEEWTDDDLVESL
T1 sequence (P51948 whole entry partner, species assumed): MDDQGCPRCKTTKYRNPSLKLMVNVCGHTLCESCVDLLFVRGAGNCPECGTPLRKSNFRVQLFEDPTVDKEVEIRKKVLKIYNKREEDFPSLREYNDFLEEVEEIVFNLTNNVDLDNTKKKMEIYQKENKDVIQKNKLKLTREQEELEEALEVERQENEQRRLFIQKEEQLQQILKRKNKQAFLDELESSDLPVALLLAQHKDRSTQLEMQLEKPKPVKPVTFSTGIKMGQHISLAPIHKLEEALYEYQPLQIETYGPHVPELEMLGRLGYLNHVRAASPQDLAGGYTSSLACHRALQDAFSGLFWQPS
T6 sequence (P05771 1-673 isoform P05771-2): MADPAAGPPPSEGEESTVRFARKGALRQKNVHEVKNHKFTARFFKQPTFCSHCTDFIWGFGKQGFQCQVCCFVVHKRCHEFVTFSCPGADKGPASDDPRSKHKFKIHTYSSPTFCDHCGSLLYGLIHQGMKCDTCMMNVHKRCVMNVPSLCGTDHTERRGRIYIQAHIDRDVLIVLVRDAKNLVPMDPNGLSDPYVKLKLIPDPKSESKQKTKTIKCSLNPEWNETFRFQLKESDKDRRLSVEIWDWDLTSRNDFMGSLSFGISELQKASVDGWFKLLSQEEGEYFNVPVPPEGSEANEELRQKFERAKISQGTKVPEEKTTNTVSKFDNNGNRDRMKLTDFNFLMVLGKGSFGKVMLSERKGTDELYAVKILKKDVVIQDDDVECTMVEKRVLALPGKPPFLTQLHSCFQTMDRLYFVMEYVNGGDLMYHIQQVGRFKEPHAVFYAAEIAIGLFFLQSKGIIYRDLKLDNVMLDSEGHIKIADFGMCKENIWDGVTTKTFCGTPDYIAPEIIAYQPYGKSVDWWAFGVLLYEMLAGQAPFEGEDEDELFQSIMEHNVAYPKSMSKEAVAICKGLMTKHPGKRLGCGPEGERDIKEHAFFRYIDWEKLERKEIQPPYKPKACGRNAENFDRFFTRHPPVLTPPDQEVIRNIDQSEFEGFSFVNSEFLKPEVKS
T4 sequence (Q00534 whole entry, species assumed): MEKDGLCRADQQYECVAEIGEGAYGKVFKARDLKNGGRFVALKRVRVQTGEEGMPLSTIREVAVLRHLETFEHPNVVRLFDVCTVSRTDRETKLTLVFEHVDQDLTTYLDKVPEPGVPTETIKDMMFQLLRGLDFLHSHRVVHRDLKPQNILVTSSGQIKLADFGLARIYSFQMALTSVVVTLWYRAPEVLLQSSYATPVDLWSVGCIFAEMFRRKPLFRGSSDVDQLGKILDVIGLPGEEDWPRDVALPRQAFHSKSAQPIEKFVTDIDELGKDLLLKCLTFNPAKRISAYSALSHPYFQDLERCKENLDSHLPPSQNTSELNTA
T4 sequence (P30281 whole entry partner, species assumed): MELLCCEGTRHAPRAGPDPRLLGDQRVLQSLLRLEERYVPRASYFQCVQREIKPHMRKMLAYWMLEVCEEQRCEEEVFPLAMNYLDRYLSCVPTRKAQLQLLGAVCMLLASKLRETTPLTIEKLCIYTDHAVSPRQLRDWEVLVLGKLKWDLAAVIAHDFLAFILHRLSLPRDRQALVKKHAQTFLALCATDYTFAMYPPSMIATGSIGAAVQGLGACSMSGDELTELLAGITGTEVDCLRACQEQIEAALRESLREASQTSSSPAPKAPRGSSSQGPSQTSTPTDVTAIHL

CCc1cnn2c(NCc3ccc[n+]([O-])c3)cc(N3CCCC[C@H]3CCO)nc12 [Formula II]
% remaining activity (CDK7/cyclinH/MAT1; at 1 μM): 7% | % remaining activity (CDK7/cyclinH/MAT1; at 10 μM): 4% | exposure completely suppressing DNA synthesis (A2780 cells [1]): greater than 0.5 micromolar | exposure showing accumulation of subG1 (apoptotic cells) (A2780 cells [1]): greater than 0.5 micromolar | effect on platelets or red blood cells [2]: No effect | % remaining activity (PKCε; at 1 μM): 93% | % remaining activity (PKCε; at 10 μM): 88% | % remaining activity (Blk; at 1 μM): 69% | % remaining activity (Blk; at 10 μM): 100% | body-weight loss over the course of the experiment (maximum dosage level (48 mg/kg IP daily for 10 days)): about 5% | MTD (once per day IP for 7 days, dose inducing 20% loss of body weight): 60 mg/kg | effect on tumor volume (A549 NSCLC xenografts; 5 dosing schedules (20, 29, 52, 3x17, 87 mg/kg), total 260 mg/kg): regression in tumor volume and mass | % inhibition observed at dosage of 5 mg/kg Formula II (A549 NSCLC xenografts; first Formula II column): 73% | % inhibition observed at dosage of 5 mg/kg Formula II (A549 NSCLC xenografts; second Formula II column): 160 (regression) % | % remaining activity (MSK1; at 1 μM): 94% | % remaining activity (MSK1; at 10 μM): 97% | % remaining activity (CDK6/cyclinD3): 12% | number of tumor cell lines with cell cycle arrest and apoptosis [3]: more than 100 tumor cell lines | % remaining activity (Lyn; at 1 μM): 108% | % remaining activity (Lyn; at 10 μM): 110% | % remaining activity (AMPK; at 1 μM): 94% | % remaining activity (AMPK; at 10 μM): 82% | period of suppression of RB phosphorylation and caspase activation after the washout (A2780 cells [4]): exceeding 6 hours | % remaining activity (PKCβII; at 1 μM): 110% | % remaining activity (PKCβII; at 10 μM): 113% | tumor growth inhibition ([5]; 8 mg/kg IP daily for 10 days): 70% | tumor growth inhibition ([5]; 16 mg/kg IP daily for 10 days): 70% | tumor growth inhibition ([5]; 32 mg/kg IP daily for 10 days): 90% | tumor growth inhibition ([5]; 48 mg/kg IP daily for 10 days): 96% | 50% inhibition level (minimum effective dose) ([5]; IP daily for 10 days): less than 8 mg/kg | MED ([5]; once per day IP for 7 days, dose inducing at least 50% inhibition of tumor growth): 5 mg/kg | exposure level at which caspase activity is maximal [6]: 0.05 µM

— patent publication US20100286038A1, “FORMULATION CONTAINING CYCLIN-DEPENDENT KINASE INHIBITING COMPOUND AND METHOD OF TREATING TUMORS USING THE SAME” (priority 2007, published 2010)
